According to article PMC7315563, “Bioactive fluorenes. Part III: 2,7-dichloro-9H-fluorene-based thiazolidinone and azetidinone analogues as anticancer and antimicrobial against multidrug resistant strains agents” (BMC Chemistry, 2020):
Converted amounts (≈) assume the structure as drawn.

Legend:
[1] = test system: Staphylococcus aureus (S. aureus), multidrug resistant clinical isolate; assay: agar well diffusion assay; format: cell-based; details: Staphylococcus aureus; S. aureus; 500 µg/mL of tested compound; 24 h
Source text: (§1) All microbial strains were kindly provided from the department of Medical Microbiology and Immunology faculty of Medicine Assiut University, these clinical isolates were obtained from clinical cases of infections admitted to Assiut University hospital as urinary tract infections, corneal ulcers, bacterial and fungal pneumonia, otomycosis, oral thrush and wound infections.
(§2) The clinical isolates used were multidrug resistant strains, they were resistant to β lactam (penicillin, amoxacillin, oxacillin), cephalosporins (cefazolin, cefaclor and cefepime) and macrolides (erythromycin and clarithromycin), they included Gram positive bacteria as Staphylococcus aureus (S. aureus), Methicillin-resistant Staphylococcus aureus (MRSA), Streptococcus pneumoniae (S. pneumoniae), and Gram negative bacteria as Escherichia coli (E. coli), Klebsiella pneumoniae (K. pneumoniae), Pseudomonas aeruginosa (P. aeruginosa), and Acinetobacter baumannii (A. baumannii). The fungal strains that were tested are Aspergillus flavus (A. flavus), A. niger (A. niger) and Candida albicans (C. albicans).
(§3) The antimicrobial activity of the fluorene derivatives was initially evaluated by agar well diffusion assay. Mueller–Hinton agar (CM0337) was poured into Petri dishes at 50–60 °C and left to solidify for 15 min. Subsequently, overnight microbial suspensions of tested strains was adjusted to turbidity of 0.5 McFarland Standard, which equals to 1–2 × 10^8 CFU/mL for bacteria and 1–5 × 10^6 for fungi. The microbial inoculums were then diluted in 1:100 ratio in case of bacteria and 1:10 ratio in case of fungi in order to get 1–5 × 10^5 CFU/mL. a sterile cotton swab was dipped into the adjusted microbial suspension and the Mueller–Hinton agar plates were inoculated by evenly streaking cotton swab over the agar medium. Then wells with a diameter of 0.5 cm were cut in the medium with a sterile cork borer. Stock solutions of the flourene derivatives were diluted in DMSO 1% to get 500 μg/mL concentrations. The tested flourene derivatives and controls (50 μL) were dispensed into the wells. The plates were incubated for 24 h at 37 °C for bacteria and C. albicans while at 25 °C for A. falvus and A. niger. The diameters of zones of inhibition (ZOI) around the wells were measured in mm. Following control agents were used: positive control agents—vancomycin (50 μg/mL) for Gram positive bacteria, gentamicin (10 μg/mL) (for Gram negative bacteria) and fluconazole 25 μg/mL for fungi and negative control agent is 1% DMSO.

[2] = test system: MDA-MB-231 human breast cancer cells; assay: cell viability assay (MTT); format: cell-based; details: 24 h; for viability at 1 µg/mL: read-out: Validity (%) for sample concentrations (µg/mL) 1; for viability at 10 µg/mL: read-out: Validity (%) for sample concentrations (µg/mL) 10; for viability at 31.25 µg/mL: read-out: Validity (%) for sample concentrations (µg/mL) 31.25; for viability at 62.5 µg/mL: read-out: Validity (%) for sample concentrations (µg/mL) 62.5; for viability at 125 µg/mL: read-out: Validity (%) for sample concentrations (µg/mL) 125; for viability at 250 µg/mL: read-out: Validity (%) for sample concentrations (µg/mL) 250; for viability at 500 µg/mL: read-out: Validity (%) for sample concentrations (µg/mL) 500
Protocol: (§4) WI-38 normal lung fibroblast cells, A549 lung cancer cells, and MDA-MB-231 breast cancer cells were obtained from VACSERA—Cell Culture Unit, Cairo, Egypt. The cell lines were originally obtained from the American Tissue Culture Collection (ATCC). WI-38, A549, and MDA-MB-231 cell lines were cultured in RPMI-1640 medium supplemented with 10% inactivate fetal bovine serum (FBS) and 1% penicillin/streptomycin were bought (Gibco, Invitrogen, CA). WI-38, A549, and MDA-MB-231 cells were seeded into 96-well plates (at a density of 5000 cells/well). On the following day, cells were treated with different concentrations (0, 1, 10, 31.25, 62.5, 125, 250, 500 µg/mL) of 16 fluorene derivatives in fresh medium and incubated for another 24 h. Cell viability was then assessed using the MTT assay (Sigma Aldrich, St. Louis, MO, USA), and the absorbance was read at 570 nm using an ELISA microplate reader (Molecular Devices, Downingtown, PA, USA).

[3] = test system: WI-38 human normal fibroblast cells; assay: cell viability assay (MTT); format: cell-based; details: 24 h; for viability at 31.25 µg/mL: read-out: Validity (%) for sample concentrations (µg/mL) 31.25; for viability at 62.5 µg/mL: 62.50 µg/mL, read-out: Validity (%) for sample concentrations (µg/mL) 62.50; for viability at 125 µg/mL: read-out: Validity (%) for sample concentrations (µg/mL) 125; for viability at 250 µg/mL: read-out: Validity (%) for sample concentrations (µg/mL) 250; for viability at 500 µg/mL: read-out: Validity (%) for sample concentrations (µg/mL) 500
Protocol: as §4

[4] = test system: A549 human lung cancer cells; assay: cell viability assay (MTT); format: cell-based; details: 24 h; for viability at 1 µg/mL: read-out: Validity (%) for sample concentrations (µg/mL) 1; for viability at 10 µg/mL: read-out: Validity (%) for sample concentrations (µg/mL) 10; for viability at 31.25 µg/mL: read-out: Validity (%) for sample concentrations (µg/mL) 31.25; for viability at 62.5 µg/mL: 62.50 µg/mL, read-out: Validity (%) for sample concentrations (µg/mL) 62.50; for viability at 125 µg/mL: read-out: Validity (%) for sample concentrations (µg/mL) 125; for viability at 250 µg/mL: read-out: Validity (%) for sample concentrations (µg/mL) 250; for viability at 500 µg/mL: read-out: Validity (%) for sample concentrations (µg/mL) 500; for viability at 1000 µg/mL: read-out: Validity (%) for sample concentrations (µg/mL) 1000
Protocol: as §4, with “On the following day, cells were treated with different concentrations (0, 1, 10, 31.25, 62.5, 125, 250, 500 µg/mL) of 16 fluorene derivatives in fresh medium and incubated for another 24 h.” left out

[5] = test system: Escherichia coli (E. coli), multidrug resistant clinical isolate; assay: agar well diffusion assay; format: cell-based; details: 24 h, 500 µg/mL of tested compound
Source text: as §1, §2, §3

Work on `O=C1CSC(c2ccc(Br)cc2)N1c1nc(-c2cc(Cl)cc3c2-c2ccc(Cl)cc2C3)cs1` (centres unmarked) [5d, 2-(4-Bromophenyl)-3-(4-(2,7-dichloro-9H-fluoren-4-yl)thiazol-2-yl)thiazolidin-4-one] yielded a zone of inhibition at 500 µg/mL [1] of 4 mm, a viability at 1 µg/mL [2] of 96.8% and a viability at 10 µg/mL [2] of 94.4%. The viability at 31.25 µg/mL [2] was 93.7%, the viability at 62.5 µg/mL [2] was 92.4% and the viability at 125 µg/mL [2] was 88.4%. The viability at 250 µg/mL [2] was 87.2%, the viability at 500 µg/mL [2] was 85.7% and the IC50 [2] was > 500 µg/mL. The viability at 31.25 µg/mL [3] was 94.9%, the viability at 62.5 µg/mL [3] was 88.5% and the viability at 125 µg/mL [3] was 86.1%. It also gave a viability at 250 µg/mL [3] of 50.7%, a viability at 500 µg/mL [3] of 44.2% and an IC50 [3] of 268 µg/mL (≈ 467 µM). For the same molecule, the viability at 1 µg/mL [4] was 98.4%, the viability at 10 µg/mL [4] was 91.7% and the viability at 31.25 µg/mL [4] was 88.9%. It also gave a viability at 62.5 µg/mL [4] of 82.2%, a viability at 125 µg/mL [4] of 78.8% and a viability at 250 µg/mL [4] of 73%. The viability at 500 µg/mL [4] was 58.6%, the viability at 1000 µg/mL [4] was 18.1% and the IC50 [4] was 574 µg/mL (≈ 999 µM). It also gave a melting point of 155 to 157 °C.
For `O=C1CSC(C=Cc2ccccc2)N1c1nc(-c2cc(Cl)cc3c2-c2ccc(Cl)cc2C3)cs1` (centres unmarked) [5i, 3-(4-(2,7-Dichloro-9H-fluoren-4-yl)thiazol-2-yl)-2-styrylthiazolidin-4-one], the zone of inhibition at 500 µg/mL [1] was 10 mm, the viability at 1 µg/mL [2] was 96% and the viability at 10 µg/mL [2] was 83.8%. It also gave a viability at 31.25 µg/mL [2] of 61%, a viability at 62.5 µg/mL [2] of 56.2% and a viability at 125 µg/mL [2] of 52.2%. It also gave a viability at 250 µg/mL [2] of 50.5%, a viability at 500 µg/mL [2] of 46.1% and an IC50 [2] of 334 µg/mL (≈ 640 µM). The viability at 31.25 µg/mL [3] was 88.2%, the viability at 62.5 µg/mL [3] was 86.9% and the viability at 125 µg/mL [3] was 69.1%. The viability at 250 µg/mL [3] was 63.1%, the viability at 500 µg/mL [3] was 59.3% and the IC50 [3] was > 500 µg/mL. The viability at 1 µg/mL [4] was 93.3%, the viability at 10 µg/mL [4] was 92.2% and the viability at 31.25 µg/mL [4] was 91.4%. The viability at 62.5 µg/mL [4] was 85.6%, the viability at 125 µg/mL [4] was 81.3% and the viability at 250 µg/mL [4] was 76.9%. It also gave a viability at 500 µg/mL [4] of 63.2%, a viability at 1000 µg/mL [4] of 49.3% and an IC50 [4] of 896 µg/mL (≈ 1720 µM). It also gave a melting point of 114 to 116 °C.
`O=C1CSC(c2ccc[nH]2)N1c1nc(-c2cc(Cl)cc3c2-c2ccc(Cl)cc2C3)cs1` (centres unmarked) [5l, 3-(4-(2,7-Dichloro-9H-fluoren-4-yl)thiazol-2-yl)-2-(1H-pyrrol-2-yl)thiazolidin-4-one] showed a zone of inhibition at 500 µg/mL [5] of 6 mm, a zone of inhibition at 500 µg/mL [1] of 9 mm and a viability at 1 µg/mL [2] of 99.1%. The viability at 10 µg/mL [2] was 87.6%, the viability at 31.25 µg/mL [2] was 79.7% and the viability at 62.5 µg/mL [2] was 76.2%. The viability at 125 µg/mL [2] was 72.4%, the viability at 250 µg/mL [2] was 64.6% and the viability at 500 µg/mL [2] was 57.8%. The IC50 [2] was > 500 µg/mL, the viability at 31.25 µg/mL [3] was 70.5% and the viability at 62.5 µg/mL [3] was 60.6%. It also gave a viability at 125 µg/mL [3] of 57.2%, a viability at 250 µg/mL [3] of 48.1% and a viability at 500 µg/mL [3] of 39.5%. The IC50 [3] was 223 µg/mL (≈ 460 µM), the viability at 1 µg/mL [4] was 96.5% and the viability at 10 µg/mL [4] was 93.6%. For the same molecule, the viability at 31.25 µg/mL [4] was 75.4%, the viability at 62.5 µg/mL [4] was 72.2% and the viability at 125 µg/mL [4] was 68%. It also gave a viability at 250 µg/mL [4] of 62.9%, a viability at 500 µg/mL [4] of 51.9% and a viability at 1000 µg/mL [4] of 41.3%. For the same molecule, the IC50 [4] was 577 µg/mL (≈ 1190 µM) and the melting point was 124 to 126 °C.
In the case of `COc1ccc(C2C(Cl)C(=O)N2c2nc(-c3cc(Cl)cc4c3-c3ccc(Cl)cc3C4)cs2)cc1` (centres unmarked) [6b, 3-Chloro-1-(4-(2,7-dichloro-9H-fluoren-4-yl)thiazol-2-yl)-4-(4-methoxyphenyl)azetidin-2-one], the zone of inhibition at 500 µg/mL [5] was 12 mm, the viability at 1 µg/mL [2] was 95.9% and the viability at 10 µg/mL [2] was 93.4%. The viability at 31.25 µg/mL [2] was 89.7%, the viability at 62.5 µg/mL [2] was 84.2% and the viability at 125 µg/mL [2] was 79.8%. For the same molecule, the viability at 250 µg/mL [2] was 72.9%, the viability at 500 µg/mL [2] was 68.9% and the IC50 [2] was > 500 µg/mL. For the same molecule, the viability at 31.25 µg/mL [3] was 94.1%, the viability at 62.5 µg/mL [3] was 87.9% and the viability at 125 µg/mL [3] was 71.6%. The viability at 250 µg/mL [3] was 62.6%, the viability at 500 µg/mL [3] was 57.7% and the IC50 [3] was > 500 µg/mL. It also gave a viability at 1 µg/mL [4] of 95.7%, a viability at 10 µg/mL [4] of 86.9% and a viability at 31.25 µg/mL [4] of 85.8%. The viability at 62.5 µg/mL [4] was 83.5%, the viability at 125 µg/mL [4] was 77.8% and the viability at 250 µg/mL [4] was 68.2%. For the same molecule, the viability at 500 µg/mL [4] was 35.2%, the viability at 1000 µg/mL [4] was 36.3% and the IC50 [4] was 338 µg/mL (≈ 640 µM). The melting point was 110 to 112 °C.
